Source: patent EP4168403B1 (priority 2020, dated 2021)
Values joined by “and” are separate entries in the source; they are usually repeats but may differ in a detail not shown here. Equal entries are not always repeated. Where two headings read alike, the source gives them in different places.

What was measured:
[1] = system: voltage-gated Ca^2+ channels (VGCC); assay: Calcium channel antagonist assay (K+-evoked cytosolic Ca2+, Fluo-4); type: cell-based
Method: The cytosolic Ca^2+ has been measured in SH-SY5Y cells. SH-SY5Y cells were maintained similarly to what was previously described^30. Free cytosolic Ca^2+ was measured using the fluorescent Ca^2+ indicator Fluo-4/AM (Fluo-4 acetomethoxyester). SH-SY5Y cells were seeded onto 96-well black plates at a density of 10^5 cells per well, achieving confluence after 48 h. Cells were washed with Krebs-Hepes solution (KH, in mM: 144 NaCl, 5.9 KCl, 1.2 MgCl2, 2 CaCl2, 11 D-glucose, 10 HEPES, pH 7.4). Cells were loaded with 10 µM Fluo-4/AM and 0.2% pluronic acid in KH and incubated for 45 min at 37 °C in the dark. Then, cells were washed twice with KH to remove the excess of probe. Tested compounds were incubated 10 min before K+ 70 mM was applied to evoke the increment of cytosolic Ca^2+. To normalize Fluo-4 signals, Triton X-100 (5%) and 1 M MnCl2 were applied to register both maximal and minimal fluorescence, respectively. The experiments were analyzed at excitation and emission wavelengths of 485 and 520 nm, respectively, and fluorescence was measured in a fluorescence microplate reader (FLUOstar Optima, BMG, Germany). Data were calculated as a percentage of Fmax - Fmin.
The blocking effect of the depolarization-induced Ca^2+ uptake was investigated in SH-SY5Y neuroblastoma cells stimulated with an extracellular concentration of K+ 70 mM, which induces the cell Ca^2+ levels elevation by opening voltage-gated Ca^2+ channels (VGCC), monitored with the Ca^2+-sensitive fluorescent dye Fluo-4. Nifedipine was used as positive standard.

[2] = target: T1, human recombinant butyrylcholinesterase (hBuChE; EC 3.1.1.8) (Homo sapiens, UniProt P06276); assay: Cholinesterase inhibition in vitro assay (modified Ellman's method), BuChE; type: biochemical; settings: pH 7.4, 37 °C, mean ± SEM, read-out: BChE (IC50 µM)
T1 construct: purchased Sigma-Aldrich (Prague, Czech Republic)
T1 sequence (P06276 29-602): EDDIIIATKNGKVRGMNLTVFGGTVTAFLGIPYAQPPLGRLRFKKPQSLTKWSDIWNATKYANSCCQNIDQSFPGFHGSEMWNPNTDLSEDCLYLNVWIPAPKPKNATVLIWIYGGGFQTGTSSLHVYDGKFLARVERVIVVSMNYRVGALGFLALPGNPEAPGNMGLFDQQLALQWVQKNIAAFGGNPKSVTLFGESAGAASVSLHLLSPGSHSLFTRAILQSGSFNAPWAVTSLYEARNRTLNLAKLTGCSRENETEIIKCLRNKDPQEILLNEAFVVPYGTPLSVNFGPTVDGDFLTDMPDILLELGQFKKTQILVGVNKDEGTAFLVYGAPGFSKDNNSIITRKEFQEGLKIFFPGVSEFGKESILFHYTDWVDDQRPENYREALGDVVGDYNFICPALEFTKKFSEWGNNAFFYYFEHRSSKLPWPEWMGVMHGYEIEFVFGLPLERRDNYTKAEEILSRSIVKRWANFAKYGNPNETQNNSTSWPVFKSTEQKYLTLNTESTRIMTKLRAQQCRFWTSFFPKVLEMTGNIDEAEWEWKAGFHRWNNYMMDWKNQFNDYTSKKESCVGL
Method: The AChE and BuChE inhibitory activity of the tested compounds was determined using a modified Ellman's method^31, 32.Human red-blood cell acetylcholinesterase (hAChE; EC 3.1.1.7), and human recombinant butyrylcholinesterase (hBuChE; EC 3.1.1.8), 5,5'-dithiobis(2-nitrobenzoic acid) (Ellman's reagent, DTNB), phosphate buffer (PB, pH 7.4), acetylthiocholine (ATC), and butyrylthiocholine (BTC), were purchased from Sigma-Aldrich (Prague, Czech Republic). Nunc polystyrene 96-well microplates with flat-bottom shape (ThermoFisher Scientific, USA) were used for the measurement and all the assay were carried out in 0.1 M KH2PO4/K2HPO4 buffer, pH 7.4. Enzyme solution was prepared at activity 2.0 units/mL in 2 mL aliquots. The assay mixture (100 µL) consisted of 40 µL of 0.1 M phosphate buffer (pH 7.4), 20 µL of 0.01 M DTNB, 10 µL of enzyme, and 20 µL of 0.01 M substrate (ATC iodide solution). Tested compounds were dissolved first in methanol (BIGI 23 in DMSO) and then further diluted by assay buffer to the final concentration. […]. […] Enzyme with the inhibitor was preincubated for 5 min in the assay mixture and then the reaction was started by addition of 20 µL of substrate (ATC for AChE, BTC for BuChE). The enzyme activity was determined by measuring the increase in absorbance at 412 nm at 37 °C at 2 min intervals using a Multi-mode microplate reader Synergy 2 (Vermont, USA). Each concentration was assayed in triplicate. The obtained data were used to compute the percentage inhibition (I; Equation 1): I = 1−(ΔAi)/(ΔA0) [%] [formula] ΔAi indicates the absorbance change provided by cholinesterase exposed to AChE inhibitors and ΔA0 indicates absorbance change caused by intact cholinesterase (phosphate buffer was used instead of AChE inhibitor solution). […] Calculations were performed using software Microsoft Excel (Redmont, WA, USA) and GraphPad Prism version 5.02 for Windows, GraphPad Software, San Diego, CA, USA.

[3] = Oxygen Radical Absorbance Capacity (ORAC-FL) assay; settings: Trolox equivalents (µmol of Trolox equivalent/µmol of compound)
Method: The radical scavenging capacity of the TFAHs was determined by the ORAC-FL method using fluorescein as a fluorescent probe^33,34. (±)-6-Hydroxy-2,5,7,8-tetramethylchromane-2-carboxylic acid (Trolox), fluorescein (FL) and 2,2'-azobis(amidinopropane) dihydrochloride (AAPH) were purchased from Sigma-Aldrich. A Varioskan Flash plate reader with built-in injectors (Thermo Scientific) was used. The reaction was carried out at 37 °C in 75 mM phosphate buffer (pH= 7.4), and the final volume reaction mixture was 200 µL. The tested compounds and Trolox standard were dissolved in DMSO to 10 mM and further diluted in 75 mM phosphate buffer (pH= 7.4). The final concentrations were 0.1-1 µM for the tested compounds and 1-8 µM for Trolox standard. The blank was composed of 120 µL of FL, 60 µL of AAPH and 20 µL of phosphate buffer (pH=7.4) and was added in each assay.
The net AUC corresponding to a sample was calculated as follows: Net AUC = AUCantioxidant −AUCblank . [formula]
Regression equations were calculated by plotting the net AUC against the antioxidant concentration. The ORAC value was obtained by dividing the slope of the latter curve between the slope of the Trolox curve obtained in the same assay. Final ORAC values were expressed as µmol of Trolox equivalent/µmol of TFAH.

[4] = target: T2, Human red-blood cell acetylcholinesterase (hAChE; EC 3.1.1.7) (Homo sapiens, UniProt P22303); assay: biochemical; settings: pH 7.4, 37 °C, mean ± SEM, read-out: AChE (IC50 µM)
T2 construct: Human red-blood cell acetylcholinesterase; purchased Sigma-Aldrich (Prague, Czech Republic); host or cells: human red blood cells
T2 sequence (P22303 32-617 isoform P22303-2 limits assumed): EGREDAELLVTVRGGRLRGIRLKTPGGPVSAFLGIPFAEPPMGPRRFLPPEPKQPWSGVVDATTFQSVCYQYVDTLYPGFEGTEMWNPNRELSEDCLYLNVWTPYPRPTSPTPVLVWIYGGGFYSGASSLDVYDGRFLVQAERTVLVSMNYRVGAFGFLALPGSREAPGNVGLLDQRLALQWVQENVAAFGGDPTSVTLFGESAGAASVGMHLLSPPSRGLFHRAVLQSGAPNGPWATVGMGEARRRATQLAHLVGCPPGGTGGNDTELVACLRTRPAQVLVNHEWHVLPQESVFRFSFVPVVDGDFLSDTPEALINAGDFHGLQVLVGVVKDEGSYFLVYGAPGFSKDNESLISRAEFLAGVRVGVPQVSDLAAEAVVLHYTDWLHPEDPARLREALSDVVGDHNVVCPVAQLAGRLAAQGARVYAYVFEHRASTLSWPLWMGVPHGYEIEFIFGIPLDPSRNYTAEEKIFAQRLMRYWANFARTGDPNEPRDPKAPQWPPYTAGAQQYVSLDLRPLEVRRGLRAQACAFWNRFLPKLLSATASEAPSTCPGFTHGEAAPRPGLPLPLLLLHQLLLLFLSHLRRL
Method: The AChE and BuChE inhibitory activity of the tested compounds was determined using a modified Ellman's method^31, 32.Human red-blood cell acetylcholinesterase (hAChE; EC 3.1.1.7), and human recombinant butyrylcholinesterase (hBuChE; EC 3.1.1.8), 5,5'-dithiobis(2-nitrobenzoic acid) (Ellman's reagent, DTNB), phosphate buffer (PB, pH 7.4), acetylthiocholine (ATC), and butyrylthiocholine (BTC), were purchased from Sigma-Aldrich (Prague, Czech Republic). Nunc polystyrene 96-well microplates with flat-bottom shape (ThermoFisher Scientific, USA) were used for the measurement and all the assay were carried out in 0.1 M KH2PO4/K2HPO4 buffer, pH 7.4. Enzyme solution was prepared at activity 2.0 units/mL in 2 mL aliquots. The assay mixture (100 µL) consisted of 40 µL of 0.1 M phosphate buffer (pH 7.4), 20 µL of 0.01 M DTNB, 10 µL of enzyme, and 20 µL of 0.01 M substrate (ATC iodide solution). Tested compounds were dissolved first in methanol (BIGI 23 in DMSO) and then further diluted by assay buffer to the final concentration. […] Enzyme with the inhibitor was preincubated for 5 min in the assay mixture and then the reaction was started by addition of 20 µL of substrate (ATC for AChE, BTC for BuChE). […] Each concentration was assayed in triplicate. The obtained data were used to compute the percentage inhibition (I; Equation 1): I = 1−(ΔAi)/(ΔA0) [%] [formula] ΔAi indicates the absorbance change provided by cholinesterase exposed to AChE inhibitors and ΔA0 indicates absorbance change caused by intact cholinesterase (phosphate buffer was used instead of AChE inhibitor solution).

[5] = SH-SY5Y cells, K+ 70 mM, mean ± SEM, read-out: IC50 (µM) Calcium channels blockade

SMILES | IC50 [1, 5] | IC50 [2] | ORAC [3] | IC50 [4] | IC50 ([1]; read-out: IC50 (µM) Calcium channels blockade, SH-SY5Y cells, K+ 70 mM, mean ± SEM)
CCOC(=O)C1=C(C)N(CC2CCN(Cc3ccccc3)CC2)C(=O)NC1c1coc2ccccc2c1=O (centres unmarked) [BIGI-3a, ethyl 1-((1-benzylpiperidin-4-yl)methyl)-6-methyl-2-oxo-4-(4-oxo-4H-chromen-3-yl)-1,2,3,4-tetrahydropyrimidine-5-carboxylate] | 14 ± 3 µM | 14.8 ± 0.7 µM | 3.29 ± 0.07 TE |  | 
CCOC(=O)C1=C(C)N(CC2CCN(Cc3ccccc3)CC2)C(=O)NC1c1coc2ccc(Br)cc2c1=O (centres unmarked) [BIGI-3b, ethyl 1-((1-benzylpiperidin-4-yl)methyl)-4-(6-bromo-4-oxo-4H-chromen-3-yl)-6-methyl-2-oxo-1,2,3,4-tetrahydropyrimidine-5-carboxylate] | 6 ± 3 µM |  | 2.06 ± 0.17 TE |  | 
CCOC(=O)C1=C(C)N(CC2CCN(Cc3ccccc3)CC2)C(=O)NC1c1coc2cc(CC)ccc2c1=O (centres unmarked) [BIGI-3c, ethyl 1-((1-benzylpiperidin-4-yl)methyl)-4-(7-ethyl-4-oxo-4H-chromen-3-yl)-6-methyl-2-oxo-1,2,3,4-tetrahydropyrimidine-5-carboxylate] | 3 ± 0.9 µM | 36.1 ± 3.1 µM | 3.51 ± 0.09 TE | 6.08 ± 0.38 µM | 
CCOC(=O)C1=C(C)N(CCC2CCN(Cc3ccccc3)CC2)C(=O)NC1c1coc2ccccc2c1=O (centres unmarked) [BIGI-3d, ethyl 1-(2-(1-benzylpiperidin-4-yl)ethyl)-6-methyl-2-oxo-4-(4-oxo-4H-chromen-3-yl)-1,2,3,4-tetrahydropyrimidine-5-carboxylate] | 9 ± 2 µM | 6.58 ± 0.34 µM | 2.53 ± 0.17 TE | 0.23 ± 0.01 µM | 
CCOC(=O)C1=C(C)N(CCC2CCN(Cc3ccccc3)CC2)C(=O)NC1c1coc2cc(CC)ccc2c1=O (centres unmarked) [BIGI-3f, ethyl 1-(2-(1-benzylpiperidin-4-yl)ethyl)-4-(7-ethyl-4-oxo-4H-chromen-3-yl)-6-methyl-2-oxo-1,2,3,4-tetrahydropyrimidine-5-carboxylate] | 2.2 ± 0.6 µM | 5.96 ± 0.22 µM | 2.20 ± 0.05 TE | 0.3 ± 0.01 µM | 
CCOC(=O)C1=C(C)N(CCC2CCN(Cc3ccccc3)CC2)C(=O)NC1c1coc2cc(C)c(Cl)cc2c1=O (centres unmarked) [BIGI-3g, ethyl 1-(2-(1-benzylpiperidin-4-yl)ethyl)-4-(6-chloro-7-methyl-4-oxo-4H-chromen-3-yl)-6-methyl-2-oxo-1,2,3,4-tetrahydropyrimidine-5-carboxylate] | 1.7 ± 0.6 µM | 15.7 ± 0.9 µM | 2.56 ± 0.13 TE | 0.29 ± 0.01 µM | 
CCOC(=O)C1=C(C)N(CCCC2CCN(Cc3ccccc3)CC2)C(=O)NC1c1coc2ccccc2c1=O (centres unmarked) [BIGI-3i, ethyl 1-(3-(1-benzylpiperidin-4-yl)propyl)-6-methyl-2-oxo-4-(4-oxo-4H-chromen-3-yl)-1,2,3,4-tetrahydropyrimidine-5-carboxylate] | 8 ± 1 µM | 4.29 ± 0.09 µM | 3.09 ± 0.07 TE | 0.15 µM | 
CCOC(=O)C1=C(C)N(CCCC2CCN(Cc3ccccc3)CC2)C(=O)NC1c1coc2ccc(Br)cc2c1=O (centres unmarked) [BIGI-3j, ethyl 1-(3-(1-benzylpiperidin-4-yl)propyl)-4-(6-bromo-4-oxo-4H-chromen-3-yl)-6-methyl-2-oxo-1,2,3,4-tetrahydropyrimidine-5-carboxylate] | 3.8 ± 0.1 µM | 6.51 ± 0.45 µM | 3.24 ± 0.02 TE | 0.18 ± 0.01 µM | 
CCOC(=O)C1=C(C)N(CCCC2CCN(Cc3ccccc3)CC2)C(=O)NC1c1coc2cc(C)c(Cl)cc2c1=O (centres unmarked) [BIGI-3l, ethyl 1-(3-(1-benzylpiperidin-4-yl)propyl)-4-(6-chloro-7-methyl-4-oxo-4H-chromen-3-yl)-6-methyl-2-oxo-1,2,3,4-tetrahydropyrimidine-5-carboxylate] | 3.2 ± 0.2 µM | 6.26 ± 0.31 µM | 1.68 ± 0.18 TE | 0.17 ± 0.01 µM | 
COc1cc(/C=C/C(=O)O)ccc1O [Ferulic acid, reference compound] |  |  | 3.7 TE and 3.7 ± 0.2 TE |  | 
COC(=O)C1=C(C)NC(C)=C(C(=O)OC)C1c1ccccc1[N+](=O)[O-] [Nifedipine, reference compound] |  |  |  |  | 6.2 ± 0.2 µM
